Results on six compounds are retold here after PubChem BioAssay (NCI).

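Following 48 hours of exposure in 96-well plates, responses at five concentrations were used to interpolate endpoints linearly. GI50 is the concentration that inhibits growth by half. TGI: concentration producing complete growth inhibition.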

Common to all, as to assay: NCI-60 cell line screen, 48 h
Assay [1] relates to COLO 205 colon.
Assay [2] relates to SNB-19 CNS.
The subject of assay [3] is SF-295 CNS.
The subject of assay [4] is A549 NSCLC.
For assay [5], the system named is HOP-62 NSCLC.
Assay [6] has as its system HCT-15 colon.
Assay [7] concerns SK-MEL-2 melanoma.
Assay [8] relates to NCI-H522 lung.
Assay [9] concerns HCT-116 colon.
Assay [10] concerns SN12C renal.

Turning to `COc1cc(C(=O)Nc2ccc(-c3nc4ccccc4[nH]3)cc2)cc(OC)c1OC`, the GI50 was 15.3 µM in [1]; 11.6 µM in assay [2]; 10.7 µM in assay [3]; 11.2 µM in assay [4]; 6.44 µM in assay [5]; 6.61 µM in assay [6]. The GI50 in assay [7] was 14.5 µM; in assay [8], 7.75 µM; in assay [9], 10.7 µM; in assay [10] it was 10.3 µM. Also, the TGI in assay [1] was 39.1 µM; in assay [2] it was 29.1 µM; in assay [3] it was 25.5 µM; in assay [4] it was 27.8 µM; in assay [5] it was 23.9 µM; in assay [6], 24.4 µM. For the same compound, the TGI in assay [7] turned out to be 29.5 µM; in [8] it was 29.9 µM; in [9], 25.3 µM; in [10], 25.5 µM.
Regarding `Cc1nc2sc(C(=O)Nc3cccc(Cl)c3)c(N)c2cc1C(O)c1ccccc1` (stereo not given), the GI50 in assay [1] was 3.31 µM; in [2], 2.33 µM; in assay [3], 1.21 µM; in assay [4], 1.59 µM; in assay [5] it was 1.45 µM; in assay [6], 0.384 µM. Moreover, the GI50 in [7] was 2.43 µM; in assay [8] it was 1.15 µM; in [9] it was 0.426 µM; in assay [10], 0.976 µM. The TGI in assay [1] is over 100 µM; in [2], 20.3 µM; in [3], 13.5 µM; in [4] it was 38.8 µM; in [5], 25.5 µM; in assay [6], 46.8 µM. The TGI in assay [7] is 26.5 µM; in [8], 18.3 µM; in assay [9], over 100 µM; in [10] it was 13.6 µM.
Consider `CC(=O)Nc1ccc2c(c1)[nH]c(=O)c1cc(Cl)ccc12`, for which the TGI in [1], in assay [2], in [3], in assay [4], in assay [5] and in assay [6] was over 100 µM in each case. Also, the TGI in assay [7], in assay [8], in assay [9] and in assay [10] was over 100 µM each time.
Consider `CC(C)OC(=O)c1cc(NC(=S)OC(C)C)ccc1Cl`, for which the TGI in assay [1] is 22.2 µM; in assay [2] it was over 56.3 µM; in assay [3] it was 46.9 µM; in [4] it was over 66.8 µM; in assay [5], over 100 µM; in assay [6], 53.4 µM. Also, the TGI is 51.6 µM in assay [7], 26.6 µM in assay [8], over 54.6 µM in assay [9] and 34.4 µM in [10].
In the case of `CCCCCCCC(=O)OC[n+]1cccc(-c2c(COC(=O)NC(C)C)c(COC(=O)NC(C)C)c3n2CCC3)c1`, the TGI in [1], in assay [2], in assay [3], in assay [4], in assay [5] and in [6] was over 100 µM in each case. In addition, the TGI in [7], in [8], in assay [9] and in assay [10] was over 100 µM in each case.
In the case of `COc1cc(C(=O)/C=C/c2c(C)n([O-])c3ccc(Cl)cc3[n+]2=O)cc(OC)c1OC`, the GI50 was 1.53 µM in assay [1]; 30.2 µM in assay [2]; 99.4 µM in [3]; 25.4 µM in assay [4]; 21.6 µM in assay [5]; 4.26 µM in [6]. Moreover, the GI50 is 17 µM in assay [7], 1.12 µM in [8], 2.75 µM in assay [9] and 10.4 µM in assay [10]. The TGI in assay [1] is 4.54 µM; in assay [2] it was over 100 µM; in assay [3], over 100 µM; in assay [4], over 100 µM; in assay [5] it was 71 µM; in [6], 30.9 µM. For the same compound, the TGI was 81.3 µM in [7], 2.8 µM in assay [8], 12.2 µM in assay [9] and over 100 µM in assay [10].
